Measurements: patent US20240270821A1, “GIP/GLP1/GCG TRI-RECEPTOR AGONISTS AND USES THEREOF” (priority 2023, published 2024)
Starred links: 1 amine or outer side, 2 acyl side, 3 side chain; linkers in the order of their positions; H or OH if unused. Non-standard residues stand in square brackets, D forms with d. Groups on a side chain read outwards from the residue. *: point of attachment. C18 diacid = O=C(O)CCCCCCCCCCCCCCCCC(=O)*; αMePhe(2-F) = C[C@](N)(Cc1ccccc1F)C(=O)O; γGlu = O=C(O)[C@H](CCC(=O)[*:2])N[*:1]; αMe4Pal = C[C@](N)(Cc1ccncc1)C(=O)O; αMeY = C[C@](N)(Cc1ccc(O)cc1)C(=O)O; 4Pal = N[C@@H](Cc1ccncc1)C(=O)O; αMeL = CC(C)C[C@](C)(N)C(=O)O; αMeS = C[C@](N)(CO)C(=O)O; Orn = NCCC[C@H](N)C(=O)O; AEEA = NCCOCCOCC(=O)O; Aib = CC(C)(N)C(=O)O

Key:
hGIPR [1] = biological target: T1, hGIPR (Homo sapiens, UniProt P48546); assay: Functional cAMP activity in the presence of 1% HSA; assay type: cell-based; settings: read-out: cAMP Rel EC50, hGIPR
T1 sequence (P48546 22-466): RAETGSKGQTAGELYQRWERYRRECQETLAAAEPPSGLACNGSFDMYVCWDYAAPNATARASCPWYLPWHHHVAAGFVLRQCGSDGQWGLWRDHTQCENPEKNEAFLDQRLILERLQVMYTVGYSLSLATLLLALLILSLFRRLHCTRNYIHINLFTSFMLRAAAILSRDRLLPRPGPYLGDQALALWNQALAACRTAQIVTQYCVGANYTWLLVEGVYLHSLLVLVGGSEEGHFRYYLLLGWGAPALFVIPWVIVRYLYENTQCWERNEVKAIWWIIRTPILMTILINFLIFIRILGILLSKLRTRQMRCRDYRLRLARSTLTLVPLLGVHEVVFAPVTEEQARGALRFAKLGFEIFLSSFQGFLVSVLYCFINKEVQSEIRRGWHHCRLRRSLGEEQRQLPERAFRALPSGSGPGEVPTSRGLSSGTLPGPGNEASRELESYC

hGLP-1R [2] = biological target: T2, hGLP-1R (Homo sapiens, UniProt P43220); assay: Functional cAMP activity in the presence of 1% HSA; assay type: cell-based; settings: read-out: cAMP Rel EC50, hGLP-1R
T2 sequence (P43220 24-463): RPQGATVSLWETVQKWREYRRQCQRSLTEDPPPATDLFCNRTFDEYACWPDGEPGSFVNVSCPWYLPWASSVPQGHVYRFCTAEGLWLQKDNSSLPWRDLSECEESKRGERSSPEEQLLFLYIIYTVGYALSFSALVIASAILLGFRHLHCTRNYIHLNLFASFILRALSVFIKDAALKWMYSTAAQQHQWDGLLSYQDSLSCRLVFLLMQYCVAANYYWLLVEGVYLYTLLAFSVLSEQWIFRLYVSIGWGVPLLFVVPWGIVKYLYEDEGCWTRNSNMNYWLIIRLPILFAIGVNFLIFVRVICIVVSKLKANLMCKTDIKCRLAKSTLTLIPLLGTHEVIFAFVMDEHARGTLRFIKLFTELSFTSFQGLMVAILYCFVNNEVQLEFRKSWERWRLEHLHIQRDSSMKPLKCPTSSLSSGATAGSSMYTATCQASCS

human GcgR = human GcgR (Homo sapiens, UniProt P47871); assay: Functional cAMP activity in the presence of 1% HSA; assay type: cell-based; settings: read-out: cAMP Rel EC50, hGcgR
human GcgR, sequence (P47871 26-477): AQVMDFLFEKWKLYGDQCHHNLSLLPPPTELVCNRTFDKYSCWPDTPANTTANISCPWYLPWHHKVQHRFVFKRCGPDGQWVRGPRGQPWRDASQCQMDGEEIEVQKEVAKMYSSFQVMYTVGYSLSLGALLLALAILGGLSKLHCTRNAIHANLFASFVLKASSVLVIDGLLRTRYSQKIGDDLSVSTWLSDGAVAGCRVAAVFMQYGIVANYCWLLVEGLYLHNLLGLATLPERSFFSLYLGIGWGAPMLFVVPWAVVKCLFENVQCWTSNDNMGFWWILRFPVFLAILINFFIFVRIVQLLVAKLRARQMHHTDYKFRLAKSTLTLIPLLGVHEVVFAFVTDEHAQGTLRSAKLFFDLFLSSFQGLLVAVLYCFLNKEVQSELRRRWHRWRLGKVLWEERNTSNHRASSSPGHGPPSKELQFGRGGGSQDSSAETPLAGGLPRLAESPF

hGIPR [3] = biological target: T1, hGIPR; assay: Functional cAMP activation in the presence of 0.1% casein (no HSA); assay type: cell-based; settings: read-out: Relative cAMP EC50, hGIPR;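 on Relative cAMP EC50, hGIPR: intracellular cAMP rise after 30 min at 37 °C read by HTRF against a standard curve, scaled between buffer alone (0%) and top control ligand concentration (100%), four-parameter fit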;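 on Relative cAMP EC50, hGLP-1R: intracellular cAMP rise after 30 min at 37 °C read by HTRF, normalized between buffer only (0%) and maximal control ligand (100%), four-parameter variable-slope fit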;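 on Relative cAMP EC50, hGcgR: intracellular cAMP rise after 30 min at 37 °C, read by HTRF against a cAMP standard curve, scaled from buffer only (0%) to maximal control ligand response (100%)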
hGLP-1R [4] = biological target: T2, hGLP-1R; assay: as above; assay type: cell-based; settings: read-out: Relative cAMP EC50, hGLP-1R
hGcgR = hGcgR (Homo sapiens, UniProt P47871); assay: as above; assay type: cell-based; settings: read-out: Relative cAMP EC50, hGcgR;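 further: intracellular cAMP rise after 30 min at 37 °C, read by HTRF against a cAMP standard curve, scaled from buffer only (0%) to maximal control ligand response (100%)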
hGcgR, sequence (P47871 26-477): as above

in vivo [5] = assay: in vivo; parameters: species or system cynomolgus monkeys; settings: both sexes, cynomolgus monkey, iv, 10 nmol/kg
Description: (§1) A study is designed to evaluate the oral bioavailability of Example polypeptides in cynomolgus monkeys. […] Standards and controls are prepared in cynomolgus monkey plasma, and any dilutions required to bring samples into the quantitative range are also performed in control cynomolgus monkey plasma. To control assay variability, an internal standard (IS) is added to all the standards and samples. The Examples and IS are extracted from 100% monkey plasma (50 μL) by protein precipitation using isopropyl alcohol and methanol (50:50 v/v). The samples are then centrifuged (3000 rpm for 10 minutes) and the supernatant is transferred to a Siricco Protein Precipitation Plate. The samples are loaded on a Sep-Pak tC18 SPE microelution plate that is conditioned with 2% formic acid in acetonitrile and water. The compounds are then washed with 2% formic acid in water and eluted using 2% formic acid in acetonitrile into a plate containing 5× Invitrosol and 1% formic acid in water prior to injecting an aliquot (10 μL) on to Xselect CSH C18, 3.5 μm, 2.1×20 mm for LC/MS analysis.
Blood samples are collected over 504 hours. Plasma is harvested from blood samples by centrifugation and stored frozen (−70° C.) until analysis. Plasma concentrations of the molecules are detected using the bioanalytical method described above.

in vivo [6] = assay: in vivo; parameters: species or system cynomolgus monkeys; settings: both sexes, cynomolgus monkey, po; for bioavailability: 10 mg; for AUC(0-inf) / CL/F / Cmax / Tmax / half-life: 300 mg
Description: as §1
[…] Blood samples are collected up to 504 hours post-dose. Plasma is harvested from blood samples by centrifugation and stored frozen (−70° C.) until analysis. Plasma concentrations of the molecules are detected using the bioanalytical method described above.

[7] = Body weight in diet-induced obese C57BL/6 mice; assay type: in vivo; settings: 10 nmol/kg SC QD, percent of starting weight, DIO mice, mean ± SEM n=5
Outline: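 Male C57BL/6 DIO mice (41-50 g, 5 per group, randomized by weight) on calorie-rich diet received subcutaneous doses 30-90 min before dark onset, QD or Q3D for 9-16 days. Body weight measured daily, expressed as percent of starting weight, mean±SEM.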

human GLP1-R = human GLP1-R (Homo sapiens, UniProt P43220); assay: GLP1-R internalization assay in HEK293 cells; assay type: cell-based; settings: for EC50: HEK293 cells expressing SNAP-GLP-1R, read-out: GLP1R Internalization EC50; for Internalization % TOP: normalized to maximum concentration of GLP-1 (100%)
human GLP1-R, sequence (P43220 24-463): as the sequence (P43220 24-463) above

[8] = tested on: Intestinal organoid from Göttingen minipig jejunum tissue, 2D monolayer; assay: Cell based in vitro permeability (Papp) assay; assay type: in vitro ADME
Outline: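 2D monolayers derived from Göttingen minipig jejunal organoids on transwell inserts. Basal samples collected at 20 min in the presence of C10. Peptide in apical and basal compartments quantified by LC/MS to give Papp.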

[9] = Pepsin stability assay in simulated gastric fluid; assay type: in vitro ADME; settings: pH 1.2, % Intact (SD)
Description: A pepsin stability assay is utilized to determine the relative stability of Example polypeptides in a simulated gastric proteolytic environment. […] The relative amount of intact peptide is quantified by mass spectrometry (MS). […] The examples were dissolved in 50 mM Tris buffer pH 8.0 at a concentration of 10 mg/mL as a stock solution. Pepsin A was reconstituted in SGF at 10 mg/mL. […] The example peptide and pepsin solutions were then incubated at 37° C. in a shaking incubator set at 100 rpm. Samples (25 μL) were withdrawn at different time intervals and quenched with 100 mM ammonium bicarbonate pH 9 (50 μL) to stop proteolytic activity. All samples were centrifuged, and the supernatants were analyzed by LC/MS to determine the remaining intact peptide.

Row | Molecule | EC50 (hGIPR [1]) [nM] | EC50 (hGLP-1R [2]) [nM] | EC50 (human GcgR) [nM] | EC50 (hGIPR [3]) [nM] | EC50 (hGLP-1R [4]) [nM] | EC50 (hGcgR) [nM] | AUC(0-inf) (in vivo [5]) [µM·h] | clearance (in vivo [5]) [L/h/kg] | half-life (in vivo [5]) [h] | bioavailability (in vivo [6]) [%] | AUC(0-inf) (in vivo [6]) [µM·h] | CL/F (in vivo [6]) [L/h/kg] | Cmax (in vivo [6]) [µM] | Tmax (in vivo [6]) [h] | half-life (in vivo [6]) [h] | Body weight (%) ([7]; 7 days) | Body weight (%) ([7]; 14 days) | EC50 (human GLP1-R) [nM] | Internalization % TOP (human GLP1-R) [%] | Relative Papp (Compared to internal standard) [8] | also measured
1 | CC[C@H](C)[C@H](NC(=O)[C@H](CC(C)C)NC(=O)[C@](C)(Cc1ccc(O)cc1)NC(=O)[C@@H](CCC(=O)O)NC(=O)[C@@H](NC(=O)[C@H](Cc1ccccc1)NC(=O)[C@H](CCC(=O)O)NC(=O)[C@](C)(Cc1ccncc1)NC(=O)[C@H](CCC(N)=O)NC(=O)[C@H](C)NC(=O)[C@H](CCCCNC(=O)COCCOCCNC(=O)CC[C@H](NC(=O)CCCCCCCCCCCCCCCCC(=O)O)C(=O)O)NC(=O)[C@H](CCCN)NC(=O)[C@H](CC(=O)O)NC(=O)[C@H](CC(C)C)NC(=O)[C@](C)(CC(C)C)NC(=O)[C@@H](NC(=O)[C@](C)(CO)NC(=O)[C@H](Cc1ccncc1)NC(=O)[C@H](CC(=O)O)NC(=O)[C@H](CO)NC(=O)[C@@H](NC(=O)[C@](C)(Cc1ccccc1F)NC(=O)[C@@H](NC(=O)CNC(=O)[C@H](CCC(N)=O)NC(=O)C(C)(C)NC(=O)[C@@H](N)Cc1ccc(O)cc1)[C@@H](C)O)[C@@H](C)O)[C@@H](C)CC)[C@@H](C)CC)C(=O)N[C@@H](CCC(=O)O)C(=O)NCC(=O)NCC(=O)N1CCC[C@H]1C(=O)N[C@@H](CO)C(=O)N[C@@H](CO)C(=O)NCC(=O)N[C@@H](C)C(=O)N1CCC[C@H]1C(=O)N1CCC[C@H]1C(=O)N1CCC[C@H]1C(=O)N[C@@H](CO)C(=O)NCC(=O)N[C@@H](CO)C(N)=O [Example 699] | 0.566 | 25.3 | 144 | 0.00663 | 0.196 | 1.35 | 9.23 ± 1.64 | 0.00111 | 50.8 ± 13.7 | 1.3 | 7.15 | 0.0907 | 0.187 | 2.75 | 34.3 | 68.34 ± 0.85 | 56.85 ± 2.42 | 14.9 | 102 | 0.51 | remaining at 0.25 h, 0.4 mg/mL [9]: 97.9%
2 | H-Y[Aib]QGT[αMePhe(2-F)]TSD[4Pal]SI[αMeL]LD[Orn]K([γGlu-γGlu-C18 diacid])AQ[αMe4Pal][Orn]FI[dE][αMeY]LIEGGPSSGEPPPETE-NH2 [Example 686] | 0.542 | 19.1 | 169 | 0.00776 | 0.298 | 2.43 | 7.04 ± 1.29 | 0.00146 | 41.5 ± 2.35 | 3.6 | 14.2 | 0.176 | 0.249 | 1 | 44.6 |  | 72.73 ± 3.65 | 33.2 | 101 | 0.60 | 
3 | H-Y[Aib]QGT[αMePhe(2-F)]TSD[4Pal][αMeS]I[αMeL]LD[Orn]K([AEEA-γGlu-C18 diacid])AQ[αMe4Pal]EFI[dE][αMeY]LIEGGPSSGAPPPSGSE-NH2 [Example 712] | 0.584 | 30.8 | 171 | 0.00689 | 0.258 | 1.36 | 12.4 ± 0.862 | 0.00081 | 54 ± 6.09 | 0.9 | 6.18 | 0.111 | 0.124 | 3.75 | 51.8 | 69.4 ± 0.60 | 63.61 ± 3.73 | 35.3 | 109 | 0.60 | remaining at 0.25 h, 0.4 mg/mL [9]: 92.4%; remaining at 0.5 h, 0.4 mg/mL [9]: 91.4%; remaining at 1 h, 0.4 mg/mL [9]: 93.5%
